Earlier results in patent US20200077661A1, “METHOD AND "IDEPS" COMPOSITION FOR DESTROYING MICROORGANISMS IN A SESSILE STATE” (IDEPS GMBH, priority 2016, published 2020).

Test system: coagulase-negative staphylococci

For varnerin, the “destruction of the exopolymeric matrix” value (16-128 μg/ml varnerin for 10 μg of biofilm, incubation at 37° C. for 24 hours) is given as “partial destruction”, the bacterial cells die (16-128 μg/ml varnerin for 10 μg of biofilm, incubation at 37° C. for 24 hours, biofilm formed within 24 hours) is given as “up to 30%” and the “bacteria in the young biofilm not eliminated” value (young biofilm (24 hours old)) is given as “up to 70%”.
